In patent US10570124B2, “Deoxycytidine kinase binding compounds” (THE REGENTS OF THE UNIVERSITY OF CALIFORNIA, priority 2016, dated 2020):
Entries after “also recorded” stand apart in the source; their conditions may differ. Read-outs that look alike come from different tables or passages of the source.

Experiments:
dCK [1] = biological target: T1, dCK (Homo sapiens, UniProt P27707); assay: Inhibition of [3H]-deoxycytidine (dCyd) uptake by CEM cells; type: cell-based; conditions: read-out: dCKi-IC-50
T1 construct: endogenous in cells; host or cells: CEM cells
Experimental: 50,000 CEM cells/well were added to Millipore MultiScreen GV 96 well plates. Cells were resuspended at […] and incubated for 30 minutes at 37° C. The drug dilution plate was prepared by starting with an initial drug concentration of 10 mM in DMSO, and proceeding to make 1:5 dilutions for drug. […] and mixed by pipetting 10 times before removing 10 uL for next well (1:5 serial dilutions). The media and tritiated deoxycytidine was mixed together. […] of media/probe mixture was added to each well of an Optiplate. […] from drug plate was added to each well in the Optiplate to obtain drug/media/probe mixture and mixed. […] of drug/media/probe mixture from Optiplate was added to the cell plate and incubate at 37° C. for 1 hour. The cell plate was placed on vacuum to aspirate, and then washed with ice cold PBS: […] 1×PBS 4 times. The backing of the plate was peeled off, and the plate was placed in dryer for at least 30 minutes or until dry at 37° C. […] Scintillation fluid per well was added, and the plate was sealed with clear plate seal. The plate was read on the Microbeta instrument.

dCK [2] = biological target: dCK (Mus musculus, UniProt P43346); assay: Inhibition of dCK activity in vivo by [18F]L-FAC PET/CT imaging; conditions: mice, IP injection, [18F]L-FAC 4 h after treatment
Experimental: [^18F]L-FAC PET/CT scans were performed as described in Shu, C.

[3] = test system: HUKEMIA Acute Myeloid Leukemia model AM-7577; assay: Acute myeloid leukemia study, HUKEMIA model AM-7577 in NOD/SCID mice; type: in vivo, Mus Musculus; conditions: for ILS (increase in life-span): vs vehicle group
Experimental: In this study, NOD/SCID mice were injected (i.v.) with cells from a human donor diagnosed with AML (IDH2, FLT3-ITD, DNMT3A, and CEBPA mutations identified). Tumor burden was assessed by evaluation of human CD45 positive leukemia cells using FACS. The primary end point was animal survival. Median survival time (MST) and increase in life-span (ILS) were calculated for all animals.
The animals were inoculated HUKEMIA® Model AM-7577. The vehicle and treatment injections were started on Day 9 post cell inoculation Day 10 post cell inoculation, respectively.
Weekly Monitoring: Body weight was monitored twice a week. Human leukemia cells was detected by FACS weekly by CD45.
Endpoints and/or Termination: The end points varied according to the tumor burden growth in Vehicle group. The major end point was animal survival. The survival of all animals was followed and median survival time (MST) was calculated for each group. The increase in life-span (ILS) was calculated as follows: ILS (%)=100×[(Median Survival Time of drug treated group/Median Survival Time of vehicle group)−1](%).
Statistical Analysis: Data was evaluated using one way ANOVA. All data was analyzed using Prism 5.0 and IBM SPSS Statistics 19.0. p<0.05 was considered to be statistically significant.

[4] = test system: p185BCR-ABL/Arf-/- pre-B ALL cells; assay: Acute lymphoblastic leukemia (ALL) model, bioluminescence imaging; type: in vivo, NSG mice; conditions: 50 mg/kg, days 4, 6, 8, 11 after inoculation
Experimental: The efficacy of Compound 9R and (R)-DI-82 single agent therapy against short-term cultures of murine BCR-ABL (p185), Arf^−/− pre-B ALL cells (p185^BCR-ABL/Arf^−/−) was assessed. This assay was previously described in Boulos, N. et al., 2011. “Chemotherapeutic agents circumvent emergence of dasatinib-resistant BCR-ABL kinase mutations in a precise mouse model of Philadelphia chromosome-positive acute lymphoblastic leukemia, Blood, 117:3585-3595 and Nathanson, D. 2014 “Co-targeting of convergent nucleotide biosynthetic pathways for leukemia eradication” J. Exp. Med. 211(3): 473-486, all of which are incorporated herein by reference.
Bioluminescent imaging and data analysis were performed using a Xenogen IVIS-200 system and Living Image Version 3.01 software (Caliper Life Sciences). […] Total flux measurements (photons/second) were quantified over the whole-animal body or a contour drawn around a target organ. […]
To evaluate the efficacy of Compound 9R and (R)-DI-82 in an in vivo B-ALL model, firefly luciferase—marked p185^BCR-ABL/Arf^−/− cells were inoculated intravenously in NSG mice. 4 days, 6 days, 8 days and 11 days after inoculation, bioluminescence imaging (BLI) of firefly luciferase-marked p185^BCR-ABL/Arf^−/− ALL-bearing NSG mice treated with 50 mg/kg compound 9R or 50 mg/kg (R)-DI-82 were measured. […]

T1 sequence (P27707 whole entry): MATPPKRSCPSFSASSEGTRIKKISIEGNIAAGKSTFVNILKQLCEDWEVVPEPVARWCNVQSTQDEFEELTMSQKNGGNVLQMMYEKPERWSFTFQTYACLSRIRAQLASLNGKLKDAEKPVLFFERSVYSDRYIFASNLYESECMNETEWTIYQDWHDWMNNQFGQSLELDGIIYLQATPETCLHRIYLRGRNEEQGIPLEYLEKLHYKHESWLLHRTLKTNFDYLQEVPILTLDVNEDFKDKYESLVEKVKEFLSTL
Sequence of dCK (Mus musculus, UniProt P43346) (P43346 whole entry): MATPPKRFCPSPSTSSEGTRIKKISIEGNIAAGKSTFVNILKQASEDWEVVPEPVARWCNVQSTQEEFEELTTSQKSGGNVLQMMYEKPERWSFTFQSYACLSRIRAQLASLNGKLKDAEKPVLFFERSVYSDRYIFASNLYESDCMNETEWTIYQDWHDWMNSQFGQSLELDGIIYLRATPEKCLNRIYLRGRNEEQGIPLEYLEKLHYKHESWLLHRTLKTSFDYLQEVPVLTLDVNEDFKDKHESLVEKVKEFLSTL

**Q.** `COc1ccc(-c2nc([C@H](C)Sc3nc(N)cc(N)n3)c(C)s2)cc1OCCN1CCOCC1` [Compound 9S, (S)-2-(1-(2-(4-methoxy-3-(2-morpholinoethoxy)phenyl)-5-methylthiazol-4-yl)ethylthio)pyrimidine-4,6-diamine] was tested. Which IC50 (dCK [1]; [3H]-dCyd uptake) did it give?
**A.** Its IC50 is 468 nM.

**Q.** `COc1ccc(-c2nc([C@@H](C)Sc3nc(N)cc(N)n3)c(C)s2)cc1OCCN1CCOCC1` [Compound 9R, (R)-2-(1-(2-(4-methoxy-3-(2-morpholinoethoxy)phenyl)-5-methylthiazol-4-yl)ethylthio)pyrimidine-4,6-diamine] was tested. Which “inhibition of dCK activity in vivo ([18F]L-FAC PET/CT)” value (dCK [2]) did it give?
**A.** Its value is “strongly inhibit dCK activity in vivo; also recorded: greater inhibition of dCK”.

**Q.** And the IC50 (dCK [1]; [3H]-dCyd uptake)?
**A.** Its IC50 is 3.15 nM.

**Q.** And the IC50 (dCK [1]; [3H]dC uptake, 0 mg/mL BSA)?
**A.** Its IC50 is 4.03 nM.

**Q.** And the IC50 (dCK [1]; [3H]dC uptake, 25 mg/mL BSA)?
**A.** Its IC50 is 6.87 nM.

**Q.** What about the IC50 (dCK [1]; [3H]dC uptake, 50 mg/mL BSA) of the same compound?
**A.** The IC50 was 11.6 nM.

**Q.** And the “tumor burden growth (human CD45 by FACS)” value ([3]; 25 mg/Kg)?
**A.** Its value is “significant increase post cells inoculation day 29”.

**Q.** And the Median survival ([3]; 25 mg/kg po BID x 46 days)?
**A.** Its Median survival is 49 days.

**Q.** What about the “ILS (increase in life-span)” value ([3]; 25 mg/kg po BID) of the same compound?
**A.** Its value is 0%.

**Q.** And the “tumor burden growth (human CD45 by FACS)” value ([3]; 50 mg/Kg)?
**A.** The value was “slowly increased during Day 29 to Day 44 post cell inoculation”.

**Q.** What about the Median survival ([3]; 50 mg/kg po BID x 46 days) of the same compound?
**A.** Its Median survival is 54 days.

**Q.** What about the “ILS (increase in life-span)” value ([3]; 50 mg/kg po BID) of the same compound?
**A.** The value was 10%.

**Q.** And the “tumor burden growth (human CD45 by FACS)” value ([3]; 100 mg/Kg)?
**A.** Its value is “slowly increased during Day 29 to Day 44 post cell inoculation”.

**Q.** What about the Median survival ([3]; 100 mg/kg po BID x 46 days) of the same compound?
**A.** The Median survival was 54 days.

**Q.** What about the “ILS (increase in life-span)” value ([3]; 100 mg/kg po BID) of the same compound?
**A.** The value was 10%.

**Q.** And the “tumor burden in peripheral blood vs vehicle” value ([3]; 100 mg/kg, day 44 post cell inoculation, p=0.021)?
**A.** The value was “significant antitumor effects”.

**Q.** Which “efficacy in the p185BCR-ABL/Arf-/- ALL model (bioluminescence)” value [4] does the source give for `COc1ccc(-c2nc([C@@H](C)Sc3nc(N)cc(N)n3)c(C)s2)cc1OCCNS(C)(=O)=O` [(R)-DI-82, (R)—N-(2-(5-(4-(1-(4,6-diaminopyrimidin-2-ylthio)ethyl)-5-methylthiazol-2-yl)-2-methoxyphenoxy)ethyl)methanesulfonamide] here?
**A.** Its value is “show efficacy”.
